# Test results from ChEMBL document CHEMBL5696439 (Cancer Res, 2010).
# Activity calls are given as the source filed them. The rule behind the calls is not given here.
# Experiments:
# [1] = molecular target: Phosphatidylinositol 4,5-bisphosphate 3-kinase catalytic subunit gamma isoform (Homo sapiens, UniProt P48736); experiment: Inhibition of PI3Kgamma (unknown origin) using PIP2 as substrate measured after 15 to 30 mins by fluorescence polarization assay
# [2] = test system: Tyrosine-protein kinase ABL1 (Homo sapiens), P00519 [E255K]; experiment: Inhibition of recombinant human full-length His-tagged ABL1 E255K mutant expressed in insect cells at 2 uM using Tyr 02 as substrate measured after 1 hr by Z'-LYTE assay relative to control; details: Insect cell
# Tyrosine-protein kinase ABL1 (Homo sapiens), P00519 [E255K], sequence (P00519 whole entry E255K): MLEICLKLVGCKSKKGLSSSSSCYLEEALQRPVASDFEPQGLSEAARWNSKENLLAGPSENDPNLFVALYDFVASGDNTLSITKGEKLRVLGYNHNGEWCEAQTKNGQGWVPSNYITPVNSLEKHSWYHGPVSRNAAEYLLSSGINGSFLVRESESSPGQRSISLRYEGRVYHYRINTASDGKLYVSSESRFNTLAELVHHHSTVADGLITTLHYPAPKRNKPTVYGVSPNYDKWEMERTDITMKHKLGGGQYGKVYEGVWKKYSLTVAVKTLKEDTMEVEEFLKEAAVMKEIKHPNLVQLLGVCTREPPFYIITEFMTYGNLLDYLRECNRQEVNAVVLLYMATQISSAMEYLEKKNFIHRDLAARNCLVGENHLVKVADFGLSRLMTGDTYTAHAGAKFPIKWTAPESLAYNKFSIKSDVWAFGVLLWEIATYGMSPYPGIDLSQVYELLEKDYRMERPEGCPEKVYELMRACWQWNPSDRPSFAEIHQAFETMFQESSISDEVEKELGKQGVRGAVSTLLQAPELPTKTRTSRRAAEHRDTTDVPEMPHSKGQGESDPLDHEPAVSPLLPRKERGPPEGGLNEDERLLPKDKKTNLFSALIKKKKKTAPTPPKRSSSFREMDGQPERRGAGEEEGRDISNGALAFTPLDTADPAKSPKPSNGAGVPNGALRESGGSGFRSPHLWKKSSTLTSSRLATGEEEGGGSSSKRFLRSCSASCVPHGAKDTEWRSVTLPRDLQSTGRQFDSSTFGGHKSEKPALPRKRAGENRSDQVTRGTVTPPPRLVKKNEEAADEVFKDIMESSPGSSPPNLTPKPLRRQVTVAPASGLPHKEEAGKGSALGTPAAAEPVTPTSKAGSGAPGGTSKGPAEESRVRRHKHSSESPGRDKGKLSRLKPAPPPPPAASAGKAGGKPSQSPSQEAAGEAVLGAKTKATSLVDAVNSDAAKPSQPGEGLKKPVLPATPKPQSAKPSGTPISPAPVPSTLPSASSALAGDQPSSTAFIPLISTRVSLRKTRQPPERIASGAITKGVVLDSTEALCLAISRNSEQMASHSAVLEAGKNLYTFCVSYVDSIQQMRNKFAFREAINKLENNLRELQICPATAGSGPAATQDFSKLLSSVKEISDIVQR
# [3] = molecular target: RAC-gamma serine/threonine-protein kinase (Homo sapiens) (UniProt Q9Y243); experiment: Inhibition of recombinant human full-length His-tagged AKT3 expressed in insect cells at 2 uM using Ser/Thr 06 as substrate measured after 1 hr by Z'-LYTE assay relative to control; details: Insect cell
# [4] = molecular target: Calcium/calmodulin-dependent protein kinase type II subunit alpha (Homo sapiens) (UniProt Q9UQM7); experiment: Inhibition of recombinant human full-length His-tagged CAMK2A expressed in insect cells at 2 uM using Ser/Thr 04 as substrate measured after 1 hr by Z'-LYTE assay relative to control; details: Insect cell
# Calcium/calmodulin-dependent protein kinase type II subunit alpha (Homo sapiens), sequence (Q9UQM7 whole entry): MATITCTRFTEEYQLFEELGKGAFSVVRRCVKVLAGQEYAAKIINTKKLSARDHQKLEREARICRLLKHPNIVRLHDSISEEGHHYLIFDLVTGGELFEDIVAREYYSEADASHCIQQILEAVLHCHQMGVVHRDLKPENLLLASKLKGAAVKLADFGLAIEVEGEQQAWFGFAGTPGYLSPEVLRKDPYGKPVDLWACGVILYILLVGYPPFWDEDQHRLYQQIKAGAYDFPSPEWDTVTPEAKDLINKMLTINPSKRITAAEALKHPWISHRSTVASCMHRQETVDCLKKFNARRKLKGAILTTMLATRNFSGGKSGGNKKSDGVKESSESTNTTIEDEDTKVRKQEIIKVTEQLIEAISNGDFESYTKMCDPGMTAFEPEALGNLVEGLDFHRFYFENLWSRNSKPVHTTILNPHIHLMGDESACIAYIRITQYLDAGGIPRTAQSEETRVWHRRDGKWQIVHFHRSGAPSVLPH
# [5] = molecular target: Serine/threonine-protein kinase Chk1 (Homo sapiens) (UniProt O14757); experiment: Inhibition of recombinant human full-length His-tagged CHEK1 expressed in baculovirus expression system at 2 uM using Ser/Thr 19 as substrate measured after 1 hr by Z'-LYTE assay relative to control
# [6] = molecular target: Dual specificity tyrosine-phosphorylation-regulated kinase 1A (Homo sapiens) (UniProt Q13627); experiment: Inhibition of recombinant human full-length GST-tagged DYRK1A expressed in insect cells at 2 uM using Ser/Thr 18 as substrate measured after 1 hr by Z'-LYTE assay relative to control; details: Insect cell
# [7] = molecular target: Dual specificity tyrosine-phosphorylation-regulated kinase 4 (Homo sapiens) (UniProt Q9NR20); experiment: Inhibition of recombinant human full-length GST-tagged DYRK4 expressed in insect cells at 2 uM using Ser/Thr 09 as substrate measured after 1 hr by Z'-LYTE assay relative to control; details: Insect cell
# [8] = molecular target: Eukaryotic elongation factor 2 kinase (Homo sapiens) (UniProt O00418); experiment: Inhibition of recombinant human full-length GST-tagged EEF2K expressed in E. coli at 2 uM using Ser/Thr 24 as substrate measured after 1 hr by Z'-LYTE assay relative to control
# [9] = molecular target: Ephrin type-B receptor 4 (Homo sapiens) (UniProt P54760); experiment: Inhibition of recombinant human His-tagged EPHB4 (561-987 residues) expressed in baculovirus expression system at 2 uM using Tyr 01 as substrate measured after 1 hr by Z'-LYTE assay relative to control
# Ephrin type-B receptor 4 (Homo sapiens), sequence (P54760 whole entry, the tested form may be a part): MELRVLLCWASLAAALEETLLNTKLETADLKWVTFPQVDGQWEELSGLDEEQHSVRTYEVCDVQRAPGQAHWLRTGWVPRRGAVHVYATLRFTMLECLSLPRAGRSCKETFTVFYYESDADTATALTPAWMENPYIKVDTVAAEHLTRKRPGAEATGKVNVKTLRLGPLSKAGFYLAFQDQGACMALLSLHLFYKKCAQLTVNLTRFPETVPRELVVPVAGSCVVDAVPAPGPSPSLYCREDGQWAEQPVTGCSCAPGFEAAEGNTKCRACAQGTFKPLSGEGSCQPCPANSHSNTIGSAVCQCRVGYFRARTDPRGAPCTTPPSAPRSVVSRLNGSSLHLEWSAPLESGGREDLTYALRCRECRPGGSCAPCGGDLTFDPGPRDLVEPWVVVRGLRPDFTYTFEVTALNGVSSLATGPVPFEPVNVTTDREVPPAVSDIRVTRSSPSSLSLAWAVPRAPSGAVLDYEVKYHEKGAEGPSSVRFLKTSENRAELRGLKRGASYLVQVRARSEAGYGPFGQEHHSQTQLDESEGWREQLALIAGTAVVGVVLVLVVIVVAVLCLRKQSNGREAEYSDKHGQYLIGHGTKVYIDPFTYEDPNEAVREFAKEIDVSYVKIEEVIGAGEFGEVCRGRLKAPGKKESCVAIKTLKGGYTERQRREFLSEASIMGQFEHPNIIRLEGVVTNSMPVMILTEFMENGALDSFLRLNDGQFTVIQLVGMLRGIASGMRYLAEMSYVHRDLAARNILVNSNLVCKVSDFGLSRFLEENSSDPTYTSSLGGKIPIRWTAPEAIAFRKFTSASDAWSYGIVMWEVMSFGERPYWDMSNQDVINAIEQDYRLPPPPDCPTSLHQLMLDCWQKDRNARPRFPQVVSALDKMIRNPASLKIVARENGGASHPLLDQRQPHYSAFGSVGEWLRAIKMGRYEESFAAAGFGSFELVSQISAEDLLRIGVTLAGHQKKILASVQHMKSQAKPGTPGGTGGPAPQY
# [10] = molecular target: Tyrosine-protein kinase Fer (Homo sapiens) (UniProt P16591); experiment: Inhibition of recombinant human His-tagged FER (541-822 residues) expressed in baculovirus expression system at 2 uM using Tyr 05 as substrate measured after 1 hr by Z'-LYTE assay relative to control
# [11] = molecular target: Glycogen synthase kinase-3 beta (Homo sapiens) (UniProt P49841); experiment: Inhibition of recombinant human full-length His-tagged GSK3B expressed in baculovirus expression system at 2 uM using Ser/Thr 09 as substrate measured after 1 hr by Z'-LYTE assay relative to control
# Glycogen synthase kinase-3 beta (Homo sapiens), sequence (P49841 whole entry, looked up): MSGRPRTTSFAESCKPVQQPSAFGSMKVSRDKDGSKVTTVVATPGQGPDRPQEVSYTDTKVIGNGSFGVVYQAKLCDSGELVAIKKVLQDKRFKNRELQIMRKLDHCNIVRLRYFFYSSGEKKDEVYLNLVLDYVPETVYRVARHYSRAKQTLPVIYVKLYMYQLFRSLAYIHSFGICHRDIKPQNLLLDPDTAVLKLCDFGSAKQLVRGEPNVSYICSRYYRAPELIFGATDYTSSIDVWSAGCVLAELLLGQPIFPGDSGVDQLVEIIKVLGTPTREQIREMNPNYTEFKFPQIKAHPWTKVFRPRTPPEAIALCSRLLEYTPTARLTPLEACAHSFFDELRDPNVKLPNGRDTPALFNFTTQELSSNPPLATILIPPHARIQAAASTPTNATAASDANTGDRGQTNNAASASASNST
# [12] = molecular target: Inhibitor of nuclear factor kappa-B kinase subunit beta (Homo sapiens) (UniProt O14920); experiment: Inhibition of recombinant human full-length GST-tagged IKBKB expressed in insect cells at 2 uM using Ser/Thr 05 as substrate measured after 1 hr by Z'-LYTE assay relative to control; details: Insect cell
# Inhibitor of nuclear factor kappa-B kinase subunit beta (Homo sapiens), sequence (O14920 whole entry, the tested form may be a part): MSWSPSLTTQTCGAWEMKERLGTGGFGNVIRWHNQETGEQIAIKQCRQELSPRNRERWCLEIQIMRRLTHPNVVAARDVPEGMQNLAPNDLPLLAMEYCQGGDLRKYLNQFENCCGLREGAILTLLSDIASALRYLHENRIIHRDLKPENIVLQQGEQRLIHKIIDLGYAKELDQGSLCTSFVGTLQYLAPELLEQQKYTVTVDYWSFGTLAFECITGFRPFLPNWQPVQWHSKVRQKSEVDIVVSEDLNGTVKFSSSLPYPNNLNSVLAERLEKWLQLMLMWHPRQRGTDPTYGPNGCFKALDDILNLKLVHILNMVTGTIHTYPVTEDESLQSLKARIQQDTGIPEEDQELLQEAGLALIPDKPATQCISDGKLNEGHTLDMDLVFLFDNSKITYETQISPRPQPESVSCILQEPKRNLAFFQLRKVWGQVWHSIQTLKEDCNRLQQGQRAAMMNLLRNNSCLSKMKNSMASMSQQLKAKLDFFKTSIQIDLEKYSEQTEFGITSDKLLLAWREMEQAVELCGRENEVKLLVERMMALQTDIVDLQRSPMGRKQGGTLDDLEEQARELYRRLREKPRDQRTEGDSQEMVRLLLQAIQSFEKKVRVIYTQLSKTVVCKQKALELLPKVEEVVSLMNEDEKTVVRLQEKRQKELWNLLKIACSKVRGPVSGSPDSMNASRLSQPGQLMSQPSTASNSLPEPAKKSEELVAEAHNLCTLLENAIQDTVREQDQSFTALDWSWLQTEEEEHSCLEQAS
# [13] = molecular target: Insulin receptor (Homo sapiens) (UniProt P06213); experiment: Inhibition of recombinant human GST-tagged INSR (1011-1382 residues) expressed in insect cells at 2 uM using Tyr 01 as substrate measured after 1 hr by Z'-LYTE assay relative to control; details: Insect cell
# [14] = molecular target: Insulin receptor-related protein (Homo sapiens) (UniProt P14616); experiment: Inhibition of recombinant human GST-tagged INSRR (944-1297 residues) expressed in insect cells at 2 uM using Tyr 04 as substrate measured after 1 hr by Z'-LYTE assay relative to control; details: Insect cell
# [15] = molecular target: Vascular endothelial growth factor receptor 2 (Homo sapiens) (UniProt P35968); experiment: Inhibition of recombinant human His-tagged KDR (789-1356 residues) expressed in insect cells at 2 uM using […] as substrate measured after 1 hr by Z'-LYTE assay relative to control; details: Insect cell
# [16] = molecular target: Serine/threonine-protein kinase Nek9 (Homo sapiens) (UniProt Q8TD19); experiment: Inhibition of recombinant human GST-tagged NEK9 (347-732 residues) expressed in insect cells at 2 uM using Ser/Thr 07 as substrate measured after 1 hr by Z'-LYTE assay relative to control; details: Insect cell
# [17] = molecular target: Phosphorylase b kinase gamma catalytic chain, skeletal muscle/heart isoform (Homo sapiens) (UniProt Q16816); experiment: Inhibition of recombinant human full length GST-tagged PHKG1 expressed in insect cells at 2 uM using Ser/Thr 07 as substrate measured after 1 hr by Z'-LYTE assay relative to control; details: Insect cell
# Phosphorylase b kinase gamma catalytic chain, skeletal muscle/heart isoform (Homo sapiens), sequence (Q16816 whole entry, looked up, canonical isoform): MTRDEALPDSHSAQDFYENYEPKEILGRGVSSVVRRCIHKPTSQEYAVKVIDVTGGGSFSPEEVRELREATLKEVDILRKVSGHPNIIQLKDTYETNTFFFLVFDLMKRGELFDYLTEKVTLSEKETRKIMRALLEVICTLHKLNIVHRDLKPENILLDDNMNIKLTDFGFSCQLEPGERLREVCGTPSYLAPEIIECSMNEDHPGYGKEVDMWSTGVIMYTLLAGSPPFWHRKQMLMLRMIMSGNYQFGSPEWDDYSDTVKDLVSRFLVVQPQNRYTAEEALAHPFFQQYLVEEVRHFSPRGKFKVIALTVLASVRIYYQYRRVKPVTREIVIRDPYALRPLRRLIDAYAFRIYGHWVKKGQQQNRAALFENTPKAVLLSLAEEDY
# [18] = molecular target: Serine/threonine-protein kinase N1 (Homo sapiens) (UniProt Q16512); experiment: Inhibition of recombinant human full length GST-tagged PKN1 expressed in insect cells at 2 uM using Ser/Thr 07 as substrate measured after 1 hr by Z'-LYTE assay relative to control; details: Insect cell
# [19] = molecular target: Serine/threonine-protein kinase D2 (Homo sapiens) (UniProt Q9BZL6); experiment: Inhibition of recombinant human full length GST-tagged PRKD2 expressed in insect cells at 2 uM using Ser/Thr 17 as substrate measured after 1 hr by Z'-LYTE assay relative to control; details: Insect cell
# Serine/threonine-protein kinase D2 (Homo sapiens), sequence (Q9BZL6 whole entry, the tested form may be a part): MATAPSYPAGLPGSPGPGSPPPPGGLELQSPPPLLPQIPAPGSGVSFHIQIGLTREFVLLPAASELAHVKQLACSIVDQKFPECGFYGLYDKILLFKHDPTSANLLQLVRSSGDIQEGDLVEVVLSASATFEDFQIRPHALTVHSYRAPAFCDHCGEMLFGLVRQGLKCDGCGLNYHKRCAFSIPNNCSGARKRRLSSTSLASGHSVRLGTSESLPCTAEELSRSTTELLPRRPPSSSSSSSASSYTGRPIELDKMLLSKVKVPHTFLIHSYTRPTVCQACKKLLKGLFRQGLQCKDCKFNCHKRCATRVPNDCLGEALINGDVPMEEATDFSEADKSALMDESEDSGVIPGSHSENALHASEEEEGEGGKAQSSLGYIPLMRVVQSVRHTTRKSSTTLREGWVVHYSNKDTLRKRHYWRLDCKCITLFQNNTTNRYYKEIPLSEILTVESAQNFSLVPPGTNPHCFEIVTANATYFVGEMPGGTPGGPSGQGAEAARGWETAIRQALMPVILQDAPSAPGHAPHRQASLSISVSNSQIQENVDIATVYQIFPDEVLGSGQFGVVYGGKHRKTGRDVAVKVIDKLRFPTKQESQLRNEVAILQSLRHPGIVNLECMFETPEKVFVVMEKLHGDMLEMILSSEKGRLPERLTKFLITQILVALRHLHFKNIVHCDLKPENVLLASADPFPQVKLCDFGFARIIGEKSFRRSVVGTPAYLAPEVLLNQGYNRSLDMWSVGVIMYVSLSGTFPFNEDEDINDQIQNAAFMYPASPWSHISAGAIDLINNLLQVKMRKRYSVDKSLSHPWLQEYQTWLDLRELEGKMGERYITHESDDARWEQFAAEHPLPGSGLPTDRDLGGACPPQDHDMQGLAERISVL
# [20] = molecular target: Serine/threonine-protein kinase Sgk3 (Homo sapiens) (UniProt Q96BR1); experiment: Inhibition of recombinant human GST-tagged SGK3 (87-496 residues) expressed in insect cells at 2 uM using Ser/Thr 06 as substrate measured after 1 hr by Z'-LYTE assay relative to control; details: Insect cell
# [21] = test system: MDA-MB-361; experiment: Induction of apoptosis in human MDA-MB-361 cells assessed as induction in cell death at 1 micromol/L incubated for 48 hrs by FACS analysis relative to control; assay type: functional; details: dose 1 µmol/L, at 1 µM
# [22] = test system: HCT-116; experiment: Induction of apoptosis in human HCT-116 cells assessed as increase in PARP cleavage at 0.3 to 3 micromol/L incubated for 48 hrs by Western blot analysis; assay type: functional, cell-based; details: dose 0.3-3 µmol/L
# [23] = test system: PC3MM2; experiment: Antitumor activity against human PC3MM2 cells xenografted in female nude mouse model assessed as suppression in P-S6K at T389 level at 50 mg/kg, iv administered once a week and measured at least 8 hrs by immunoblot analysis; assay type: functional, organism-based
# [24] = test system: A498; experiment: Synergistic antitumor activity against human A498 cells xenografted in female nude mouse model assessed as cause in tumor regression at 50 mg/kg, po qd administered as 5 days on/2 days off regimen for 4 cycles in the presence of BEV; assay type: functional, organism-based; details: time 28.0 day
compound,measurement,setting,value
CNC(=O)Nc1ccc(-c2nc(N3CC4CCC(C3)O4)c3cnn(C4CCC5(CC4)OCCO5)c3n2)cc1,IC50,[1],> 10 µM
same,inhibition,[2],5%
same,inhibition,[3],2%
same,inhibition,[4],0%
same,inhibition,[5],9%
same,inhibition,[6],2%
same,inhibition,[7],4%
same,inhibition,[8],1%
same,inhibition,[9],-4%
same,inhibition,[10],5%
same,inhibition,[11],1%
same,inhibition,[12],-5%
same,inhibition,[13],4%
same,inhibition,[14],6%
same,inhibition,[15],7%
same,inhibition,[16],-2%
same,inhibition,[17],7%
same,inhibition,[18],14%
same,inhibition,[19],1%
same,inhibition,[20],3%
same,Activity,[21],47%
same,Activity,[22],inactive
same,Activity,[23],Active
same,Activity,[24],Active
